# Results: patent EP0364941A1, “Branched-chain alkyl esters of 2-(4-(2-piperidino ethoxy)benzoyl)benzoic acid, processes for their preparation and their use as spasmolytic agents” (HOECHST AKTIENGESELLSCHAFT, priority 1988, dated 1990)
# Where two headings read alike, the source gives them in different places.
# System: small intestine
# Experiment: Motility of the small intestine in the conscious dog
# Type: in vivo
# Details: for Area under the contraction curve, Postdrug 10 min: 10 min postdrug; for Area under the contraction curve, Postdrug 10 min / Area under the contraction curve, Postdrug 20 min / Area under the contraction curve, Postdrug 30 min / Area under the contraction curve, Postdrug 40 min / Area under the contraction curve, Postdrug 50 min / Area under the contraction curve, Postdrug 60 min / Area under the contraction curve, Predrug -20 - 0: phase I and II; for Area under the contraction curve, Postdrug 20 min: 20 min postdrug; for Area under the contraction curve, Postdrug 30 min: 30 min postdrug; for Area under the contraction curve, Postdrug 40 min: 40 min postdrug; for Area under the contraction curve, Postdrug 50 min: 50 min postdrug; for Area under the contraction curve, Postdrug 60 min: 60 min postdrug; for Inhibition Maximal / Inhibition Mean / ED50: phase I+II activity; for Area under the contraction curve, Predrug -20 - 0: predrug baseline -20 - 0 min; for Duration of action: when postdrug values reached 90 % or more of predrug values; for ED50: Canis lupus familiaris, iv
# Source text: Male dogs (THG Tierhandelsgesellschaft Rodenbach, Hoe:BEAK (Beagle)) weighing 15 - 20 kg were used in all experiments. At least 4 weeks prior to the experiment the dogs had been equipped with miniaturized strain gage force transducers (T1-T3) (2x4 mm), sutured onto the gut at the locations mentioned below. The cables of the transducers were embedded into a cannula which carried the plug for external electric connection. This stainless steel cannula was implanted into the abdominal wall, close below the costal arch. Each transducer was connected to a measuring bridge. The signals were on line stored using a HP 9835 A computer, allowing later analysis of the data. • T1 : Proximal jejunum • T2 : Distal jejunum • T3 : Ileum
# 18 hours prior to the experiment food was withdrawn from the animals, water ad libidum. All experiments started between 08:00 and 09:00 am.
# The following motility parameters were determined: The integral under the […] at 10 min intervals (mNx10min) as an index of phase I + II activity. The duration of drug action (min.) The duration of the interdigestive migrating complex (IMC) (min) as a measure of phase III activity.
# Test Compound II was given at doses of 0.2 and 0.5 mg/kg i.v. or 5 mg/kg i.g., dissolved in saline, in a volume of 1 ml/kg (i.v.) or 2 ml/kg (i.g.), n = 3 - 6. Control n = 26.
# Buscopan was given at doses of 0.3 and 1 mg/kg i.v., dissolved in saline, in a volume of 1 ml/kg, n = 4 - 6. Pitofenone was given at doses of 1 mg/kg i.v., dissolved in saline, in a volume of 1 ml/kg, n = 8.
# ID₅₀-values were determined graphically.
smiles,measurement,setting,value
"CC(C)OC(=O)c1ccccc1C(=O)c1ccc(OCCN2CCCCC2)cc1.Cl [Test Compound II, Isopropyl-2-[4-(2-piperidino-ethoxy)-benzoyl]-benzoate hydrochloride]","Area under the contraction curve, Postdrug 10 min",0.2 mg/kg i.v.,1.54 mN x 10 min
same,"Area under the contraction curve, Postdrug 20 min",0.2 mg/kg i.v.,1.42 mN x 10 min
same,"Area under the contraction curve, Postdrug 30 min",0.2 mg/kg i.v.,1.88 mN x 10 min
same,"Area under the contraction curve, Postdrug 40 min",0.2 mg/kg i.v.,1.77 mN x 10 min
same,"Area under the contraction curve, Postdrug 50 min",0.2 mg/kg i.v.,1.78 mN x 10 min
same,"Area under the contraction curve, Postdrug 60 min",0.2 mg/kg i.v.,2.19 mN x 10 min
same,Inhibition Maximal,0.2 mg/kg i.v.,34%
same,Inhibition Mean,0.2 mg/kg i.v.,22 ± 4%
same,"Area under the contraction curve, Predrug -20 - 0",0.2 mg/kg i.v.,2.15 mN x 10 min
same,Duration of action,0.2 mg/kg i.v.,50 min
same,duration of inhibitory effect,"0.5 mg/kg i.v., conscious dog",approximately one
same,"Area under the contraction curve, Postdrug 10 min",0.5 mg/kg i.v.,0.54 mN x 10 min
same,"Area under the contraction curve, Postdrug 20 min",0.5 mg/kg i.v.,0.50 mN x 10 min
same,"Area under the contraction curve, Postdrug 30 min",0.5 mg/kg i.v.,0.99 mN x 10 min
same,"Area under the contraction curve, Postdrug 40 min",0.5 mg/kg i.v.,1.17 mN x 10 min
same,"Area under the contraction curve, Postdrug 50 min",0.5 mg/kg i.v.,1.61 mN x 10 min
same,"Area under the contraction curve, Postdrug 60 min",0.5 mg/kg i.v.,2.46 mN x 10 min
same,Inhibition Maximal,0.5 mg/kg i.v.,81%
same,Inhibition Mean,0.5 mg/kg i.v.,54 ± 11%
same,"Area under the contraction curve, Predrug -20 - 0",0.5 mg/kg i.v.,2.62 mN x 10 min
same,Duration of action,0.5 mg/kg i.v.,60 min
same,Duration of cycles,"5 mg/kg intragastrical, Phase III activity",298 ± 18 min
same,inhibition of phase III activity,"5 mg/kg intragastrically, conscious dog",pronounced inhibition
same,ED50,"conscious dog, read-out: intravenous IC₅₀-values determined from maximal inhibition",0.22 mg/kg
same,ED50,"determined graphically, read-out: ID₅₀",0.26 mg/kg
